# From ChEMBL document CHEMBL3507680, “University of Dundee, Gates Library screen for HepG2 cell viability”
# Assay: Human HepG2 cell viability assay in 384 well format
# Type: toxicity, cell-based
# Design: dose 125 nL, time 70.5 hour; concentration not given beside the values
# Settings: HepG2 cells, read-out: Inhibition
row,Compound,cytotoxicity at 70.5 h [%]
1,CS(=O)(=O)N1CC(c2ncn3ccccc23)C1,-9.83
2,CC(=O)Nc1cccc(CN2CCN(C3=NCC(C)(C)S3)CC2)c1,-10.7
3,CSc1cccc(NC(=O)N2CCCC(CNC(=O)c3ccco3)C2)c1 (stereo not given),-8.32
4,Cc1cc(C[S+]([O-])CC(=O)NCc2cccs2)no1 (stereo not given),-4.91
5,COCC(=O)N1CCC2(CC1)CC(COC)N(Cc1ccccn1)C2 (stereo not given),-4.33
6,CS(=O)(=O)NC1CCN(C(=O)c2ccc3ccccc3c2)C1 (stereo not given),5.82
7,CN(C)CCNc1c(-c2ccccc2)c(=O)c1=O,-1.53
8,Cc1ccc(OCC(=O)NS(=O)(=O)c2c(C)noc2C)cc1C,25
9,Cc1nn(C)cc1-c1ccnc(N2CCN(c3cnccn3)CC2)n1,-0.227
10,CSc1ccccc1C(=O)N(C)C1CCCN(CCc2ccccc2)C1 (stereo not given),-5.22
11,N#Cc1ccc(OCCN2CCn3c(nnc3C3CC3)C2)cc1,6.25
12,Cc1occc1C(=O)N(CCN(C)C)Cc1ccccn1,15.9
13,CCn1ccnc1C1CCN(Cc2c(F)cccc2F)CC1,3.09
14,CCOc1ccc2c(c1)CN(Cc1nc3c(cnn3C)c(=O)[nH]1)CC2,-4.82
15,COc1cccc2ccn(CC(=O)NCC(C)C)c12,11.2
16,CNC(=O)CS(=O)(=O)C1CCN(S(=O)(=O)c2cccnc2)CC1,-3.91
17,CC(=O)N1C(CN2CCCC2)C[C@@H]2CN(C(=O)c3ccoc3)CC[C@@H]21 (stereo not given in full),-15.6
18,Cc1cc(C(=O)N(C)Cc2cccs2)nc(N2CCCC2)n1,-6.81
19,c1csc(CN2CCOCC3(CCN(C4CCOCC4)C3)C2)n1 (stereo not given),0.591
20,COc1cccc(-n2cc(CN(C)C(=O)c3cnc(O)cn3)cn2)c1,-9
21,CCOCCS(=O)(=O)c1nnc(NCCOC)s1,23.1
22,CCS(=O)(=O)NCCNCc1cc(F)ccc1Br,14.4
23,Cn1cc(NC(=O)N2CCC(NS(C)(=O)=O)CC2)ccc1=O,2.55

row,Compound,cytotoxicity at 70.5 h [%]
1,CC(C)Oc1cccc(CC(=O)N(CC(N)=O)C2CCCC2)c1,-6.57
2,CN1CCC2(COCc3cnc(-c4ccccc4)nc32)C1 (stereo not given),-6.86
3,Cc1ccc(C(=O)NC2CCN(Cc3cccc4c3OCCO4)CC2)s1,-2.59
4,Cc1nc2ccccn2c1CN(Cc1cccnc1)CC1CCCO1 (stereo not given),0.351
5,O=C(Nc1ccc(CCN2CCC(O)CC2)cc1)C1CCOCC1,9.76
6,COc1cccc(-n2cc(CN(C)C(=O)c3cc[nH]n3)cn2)c1,-6.6
7,COc1ccc(C2=NOC(C#N)C2)cc1 (stereo not given),8.47
8,CCn1ncc2c1CCCC2NCc1cscn1 (stereo not given),-5.01
9,Oc1cc(-c2ccsc2)nc(C2CCN(Cc3cccnc3)CC2)n1,-5.93
10,C[C@@H]1CN(CCCOc2ccc(F)cc2)CC[C@@]1(O)C1CCOCC1,2.59
11,Cc1nc(C)n(CC2CN(c3ncnc4[nH]ccc34)CCO2)n1 (stereo not given),1.75
12,Cc1ncsc1CCN(C)C(=O)CN1CCCCCC1=O,-2.38
13,CC(C)CNC(=O)CN(Cc1ccc(F)cc1)S(C)(=O)=O,-5.67
14,O=C(O)c1cccnc1CN1CCCCC1CCc1cccs1 (stereo not given),12.3
15,CNC(=O)c1cc2c(s1)CCN(C(=O)CCC1CCCN(C)C1)C2 (stereo not given),-7.22
16,Cc1ncsc1C(=O)NC1CCN(CCC#N)CC1,16.5
17,CCCc1cc(NCc2nc(COC)no2)n2nccc2n1,-0.144
18,CCc1cc(C(=O)N2CCc3c(ncn3CCc3ccccc3)C2)[nH]n1,5.19
19,Cc1cccc(CCNC(=O)CCS(=O)(=O)C2CCCC2)c1,-5.57
20,CC(C)Cc1noc(CN(C)C2CCS(=O)(=O)C2)n1 (stereo not given),-3.8
21,Cc1ccc2c(c1)N(C(=O)c1cc[nH]c(=O)c1)CC(C)O2 (stereo not given),-1.21
22,COc1ccc(CNC(C)Cn2cccn2)cc1OC (stereo not given),1.53
23,CC(=O)NC1CCN(c2cc(-c3ccccc3)nc3c(C)c(C)nn23)C1 (stereo not given),-2.22

row,Compound,cytotoxicity at 70.5 h [%]
1,COc1ccc(CC(C)(O)CNC(=O)Cc2cccs2)cc1 (stereo not given),11.8
2,CCC(NC(=O)C1CCN(S(C)(=O)=O)CC1)c1ccc(OC)cc1 (stereo not given),-4.59
3,Cc1nc(NCCc2noc(C3CCCO3)n2)c2sccc2n1 (stereo not given),49.7
4,Cc1nc(N[C@H]2COC[C@@H]2N2CCCC2)c2cnn(C)c2n1,-8.31
5,O=C1CCC2(CCCN(Cc3nnc(C4CC4)o3)C2)CN1CCO (stereo not given),3.23
6,CC(=O)NCCC(=O)N(C/C=C/c1ccccc1)CCO,24
7,c1ccc(-n2cc(CN3CCCC(Cn4cncn4)C3)nn2)cc1 (stereo not given),-7.1
8,Cc1ncsc1CN(Cc1ccccc1)Cc1ncc[nH]1,17.5
9,O=C(NCC1CCN(Cc2cc3ccccc3[nH]2)C1)C1CCCCC1 (stereo not given),-19.6
10,Cc1nnsc1-c1nnc2sc(C(C)C)nn12,3.22
11,O=C(O)c1cc(S(=O)(=O)Nc2ccc(F)c(Cl)c2)cc2c1OCCO2,3.36
12,CN(Cc1cc2n(n1)CCCN(C(=O)N1CCCC1)C2)Cc1nccs1,24.4
13,Cc1ccc(CN(CCCn2ccnc2)Cc2cnc(N(C)C)nc2)s1,21.5
14,CCc1ccsc1C(=O)NC(C#N)CC(C)C (stereo not given),-2.59
15,CCCn1ncc(C(=O)N2CCN(C3CCCC3)CC2)c1C,-3.82
16,CCc1nc(C2CCCN(c3ncccn3)C2)no1 (stereo not given),-2.54
17,COc1cccc2c1OCCCN(Cc1ccc(C(N)=O)c(=O)[nH]1)C2,-8.27
18,C[C@@H]1CN(C2CCCCC2)CC[C@@]1(O)C1CCOCC1,-16
19,NC(=O)CN1C(=O)CO[C@H]2CN(Cc3ccccc3)C[C@H]21,-0.937
20,CCN1C(=O)CCCC12CCCN(C(=O)c1ccoc1)C2 (stereo not given),-3.69
21,Cc1cccc(-c2noc(CN3CCCCC3Cn3cncn3)n2)c1 (stereo not given),-6.45
22,Cc1nocc1C(=O)N1CCOC2(COCCN(CC3CC3)C2)C1 (stereo not given),-2.08
23,Cc1nc(NCc2noc(C3CCCO3)n2)c2sccc2n1 (stereo not given),31.3

row,Compound,cytotoxicity at 70.5 h [%]
1,COc1ccccc1CN(Cc1nc(CC(C)C)no1)C1CC1,-14.2
2,CN(C)c1ccc(C(=O)N2CCCC2c2noc(C3CC3)n2)nn1 (stereo not given),13.8
3,Cc1nc(-c2cnn(C)c2)nc2c1CN(C(=O)c1cccnc1)CC2,-2.03
4,O=c1cc(Cn2cncn2)nc2n1CCCN(Cc1ccco1)C2,-3.55
5,CC1(C)OC(=O)N(CC(=O)N2CCC(c3ccccc3Cl)C2)C1=O (stereo not given),-6.23
6,N#CCCN(Cc1ccco1)C(=O)CCCNC(=O)c1ccccc1,-15.9
7,Cc1nn(C)c(C)c1CCC(=O)OCC(=O)N1CCc2sccc2C1,20.5
8,Cc1occc1C(=O)Nc1ccc(C(=O)NC[C@H]2CCCN2)cc1,7
9,Cc1nc(C)n(C2CCCN(C(=O)Cc3csc(C(C)C)n3)C2)n1 (stereo not given),-3.36
10,CC(=O)N1Cc2ccccc2CC1C(=O)Nc1ccc(N(C)C)cn1 (stereo not given),-24.9
11,CN(C)CCn1ccnc1C1CCN(c2cc(N)nc(N)n2)CC1,-6.61
12,COc1c(-c2ccc(O)cc2)oc2cc(O)cc(O)c2c1=O [ISOKAEMPFERIDE],-8.89
13,COCC(=O)N1CCCCC1c1nc(C)c2c(n1)N(CC1CC1)C(=O)C2 (stereo not given),-2.8
14,CCc1ccc(CN2CCCCC2c2n[nH]cc2-c2cc(C)no2)cc1 (stereo not given),-5.56
15,O=C(c1cccc(OC2CCCC2)c1)N1CCCC(n2cncn2)C1 (stereo not given),5.3
16,CN(Cc1nnc2n1CCC2)C(=O)c1ccc2c(c1)CCO2,-3.65
17,Cc1noc(NC(=O)CCNC(=O)c2ccc(Br)cc2)n1,14.6
18,CC(C)CN1C(=O)C2(CCCC2)NC12CCSCC2,0.871
19,Cn1cc(CNC2CCCN(Cc3noc(C4CC4)n3)C2)cn1 (stereo not given),3.36
20,CC1CN(C)CCN1C(=O)Nc1nc(-c2ccc[nH]2)cs1 (stereo not given),-14.7
21,CCCC(O)CNc1cncc(Br)c1 (stereo not given),-5.08
22,CC(C)c1noc(CN(CCC2CCCCC2)CC(N)=O)n1,-3.41
23,CCN(CCOc1ccc(F)cc1)C(=O)c1ccncc1Cl,-2.29

row,Compound,cytotoxicity at 70.5 h [%]
1,CSCCC(CO)NC(=O)c1sc(-c2ccccc2Cl)nc1C (stereo not given),-23.9
2,Cc1sc(Oc2ccccc2Cl)nc1C(=O)O,7.28
3,Cc1ccc([C@@H]2CN(C(=O)c3ccon3)C[C@H]2NC(=O)C2CC2)cc1,-0.162
4,CC(NC(=O)OC(C)(C)C)c1nnc(S(=O)(=O)Cc2ccccc2Cl)o1 (stereo not given),-4.85
5,CN(CCc1ccccn1)C(=O)C1Cc2ccccc2CN1C (stereo not given),-10.6
6,COC(CNC(=O)c1ccc(NC(C)=O)cc1)c1cccc(Cl)c1 (stereo not given),-5.6
7,O=C(c1cccnc1N1CCN(Cc2ccoc2)CC1)N1CCCCC1,-0.284
8,Cn1cc(CN2CC[C@@H]3[C@@H](CCC(=O)N3CCc3c[nH]cn3)C2)cn1,-6.69
9,CCc1nc(C2CCCN2C(=O)c2cc[nH]n2)no1 (stereo not given),3.06
10,COc1ccc(C(C)NCc2ccsc2)cc1Cn1cccn1 (stereo not given),-3.16
11,C[C@@H]1CN(C(=O)c2cc(Cn3cnc4ccccc43)on2)C[C@H](C)O1,-5.79
12,Cc1nc(-c2ccccc2)sc1CNC1CCc2ncnn2C1 (stereo not given),-10.6
13,CCN1C(=O)C(c2ccccc2)CC12CCN(CCO)CC2 (stereo not given),-13.9
14,CN(C)[C@@H]1CN(C(=O)Cc2ccsc2)[C@@H]2CCCO[C@H]12,16.1
15,COc1ccc(OCCN(C)C(=O)c2ccc(OC)cc2O)cc1,-9.58
16,CS(=O)(=O)NCC1CCCN(C(=O)COCC(F)(F)F)C1 (stereo not given),-21
17,CN(C)Cc1nnc(C(=O)N(C)Cc2ccc(C(F)(F)F)cc2)o1,-1.19
18,Clc1ccc(-n2cnnc2CCCN2CCOCC2)cc1,1.11
19,CCOc1ccc(-c2ccnc(COc3ccccc3)n2)cc1C(=O)O,-0.267
20,CNC(=O)CCOC(=O)c1cccc(-n2ccc(C(F)(F)F)n2)c1,0.427
21,Cc1ncsc1CCC(=O)NC1CCN(Cc2cccs2)CC1,-11.5
22,CN(C)C(=O)c1n[nH]c2c1CCN(Cc1nccs1)C2,-4.93
23,O=C(CCN1CCCC(CO)(CC2CC2)C1)NCc1cccc(Cl)c1 (stereo not given),-7.94
